Converted amounts (≈) assume the structure as drawn.
Experiments:
P388 = assay: Cytotoxicity against P388 murine leukemia cell line at 100-200 uM; type: functional; settings: Mus musculus, read-out: ED50 (the source's name)
[1] = tested on: Mycobacterium tuberculosis; assay: Inhibitory activity against Mycobacterium tuberculosis H37Rv; type: functional
[2] = Dissociation constant, pKa of the compound; type: physicochemical
[3] = Therapeutic index (ED50/MIC50); type: cell-based; settings: mouse, P388 cells; read-out: Ratio ED50/MIC50

| Compound | EC50 (P388) | MIC50 [1] | MIC99 [1] | pKa [2] | selectivity ratio [3] |
| --- | --- | --- | --- | --- | --- |
| Nc1ncnc2c1ncn2[C@@H]1O[C@H](Cn2cc(C(=O)c3ccccc3O)nn2)[C@@H](O)[C@H]1O | > 100 µg/mL | > 100 µM | > 100 µM | – | – |
| Nc1ncnc2c1ncn2[C@@H]1O[C@H](COP(=O)(O)CC(=O)c2ccccc2O)[C@@H](O)[C@H]1O | > 100 µg/mL | > 100 µM | > 100 µM | 2 | – |
| Nc1ncnc2c1ncn2[C@@H]1O[C@H](COS(=O)(=O)NC(=O)c2ccccc2O)[C@@H](O)[C@H]1O | > 100 µg/mL | 0.091 µM (≈ 0.0424 µg/mL) | 0.29 µM (≈ 0.135 µg/mL) | – | – |
| Nc1ncnc2c1ncn2[C@@H]1O[C@H](COS(=O)(=O)NCc2ccccc2O)[C@@H](O)[C@H]1O | > 100 µg/mL | > 100 µM | > 100 µM | 8.5 | – |
| Nc1ncnc2c1ncn2[C@@H]1O[C@H](CNS(=O)(=O)NC(=O)c2ccccc2O)[C@@H](O)[C@H]1O | > 100 µg/mL | 0.077 µM (≈ 0.0358 µg/mL) | 0.19 µM (≈ 0.0884 µg/mL) | – | > 900 |
| Nc1ccccc1C(=O)NS(=O)(=O)OC[C@H]1O[C@@H](n2cnc3c(N)ncnc32)[C@H](O)[C@@H]1O | > 100 µg/mL | 30.9 µM (≈ 14.4 µg/mL) | > 100 µM | – | – |
| Nc1ncnc2c1ncn2[C@@H]1O[C@H](COS(=O)(=O)NC(=O)c2ccccc2)[C@@H](O)[C@H]1O | > 100 µg/mL | 4.5 µM (≈ 2.03 µg/mL) | 12.5 µM (≈ 5.63 µg/mL) | 2.8 | – |
| NNC(=O)c1ccncc1 [ISONIAZID] | – | – | 0.18 µM (≈ 0.0247 µg/mL) | – | – |
